Converted amounts (≈) assume the structure as drawn. The source made the active and inactive calls. No cut-off for these calls is given here.
What was measured:
Bacillus subtilis = assay: Antibacterial activity against Bacillus subtilis by disk diffusion assay; assay type: functional
Staphylococcus aureus [1] = assay: Antibacterial activity against methicillin-resistant Staphylococcus aureus ATCC 43300 by disk diffusion assay; assay type: functional
Acinetobacter baumannii [2] = assay: Antibacterial activity against Acinetobacter baumannii ATCC 19606; assay type: functional; details: ATCC 19606 = CIP 70.34 = JCM 6841
Escherichia coli = assay: Antibacterial activity against Escherichia coli by disk diffusion assay; assay type: functional
Acinetobacter baumannii [3] = assay: Antibacterial activity against Acinetobacter baumannii ATCC 19606 by disk diffusion assay; assay type: functional, ATCC 19606 = CIP 70.34 = JCM 6841
Staphylococcus aureus [4] = assay: Antibacterial activity against methicillin-resistant Staphylococcus aureus ATCC 43300; assay type: functional
[5] = Cytotoxicity against HEK293 cells; assay type: cell-based; details: human
Acinetobacter baumannii [6] = assay: Antibacterial activity against Acinetobacter baumannii ATCC 19606 at 0.1 M by disk diffusion assay; assay type: functional, ATCC 19606 = CIP 70.34 = JCM 6841
Acinetobacter baumannii [7] = assay: Antibacterial activity against Acinetobacter baumannii ATCC 19606 at 0.01 M by disk diffusion assay; assay type: functional, ATCC 19606 = CIP 70.34 = JCM 6841
Acinetobacter baumannii [8] = assay: Potency index, ratio of chloramphenicol MIC to compound MIC for Acinetobacter baumannii ATCC 19606; assay type: functional, ATCC 19606 = CIP 70.34 = JCM 6841
[9] = ATCC 19606 = CIP 70.34 = JCM 6841

| SMILES | inhibition zone (IZ) (Bacillus subtilis) | inhibition zone (IZ) (Staphylococcus aureus [1]) | other results |
| --- | --- | --- | --- |
| O=C(N[C@H](CO)[C@H](O)c1ccc([N+](=O)[O-])cc1)C(Cl)Cl [CHLORAMPHENICOL] | 36 mm | 25 - 36 mm | MIC (Acinetobacter baumannii [2]): 16 µg/mL (≈ 49.5 µM); inhibition zone (IZ) (Escherichia coli): 39 mm; inhibition zone (IZ) (Acinetobacter baumannii [3]): 18 - 22 mm |
| O=C(O)c1ccc(-n2cc(CNc3ccc(F)c([N+](=O)[O-])c3)c(-c3ccccc3)n2)cc1 | 12 mm | 14 mm | – |
| O=C(O)c1ccc(-n2cc(/C=N/NC(=O)c3ccc(O)cc3)c(-c3ccccc3)n2)cc1 | inactive | inactive | – |
| O=C(O)c1ccc(-n2cc(CNc3ccc(F)c(Cl)c3)c(-c3ccccc3)n2)cc1 | 11 mm | 11 mm | – |
| O=C(O)c1ccc(-n2cc(CNc3cc(C(F)(F)F)cc(C(F)(F)F)c3)c(-c3ccccc3)n2)cc1 | 25 mm | 22 mm | MIC (Staphylococcus aureus [4]): 32 µg/mL (≈ 63.3 µM); CC50 [5]: > 32 µg/mL |
| O=C(O)c1ccc(-n2cc(/C=N/Nc3ccc([N+](=O)[O-])cc3)c(-c3ccccc3)n2)cc1 | inactive | inactive | inhibition zone (IZ) (Escherichia coli): inactive; inhibition zone (IZ) (Acinetobacter baumannii [3]): 22 mm |
| O=C(O)c1ccc(-n2cc(CNc3ccc(Cl)c(Cl)c3)c(-c3ccccc3)n2)cc1 | 11 mm | 11 mm | MIC (Staphylococcus aureus [4]): 16 µg/mL (≈ 36.5 µM); CC50 [5]: 18 µg/mL (≈ 41.1 µM) |
| N/N=C/c1cn(-c2ccc(C(=O)O)cc2)nc1-c1ccccc1 | 7 mm | 7 mm | inhibition zone (IZ) (Escherichia coli): inactive; inhibition zone (IZ) (Acinetobacter baumannii [3]; [9]): inactive |
| O=C(O)c1ccc(-n2cc(/C=N/Nc3ccccc3F)c(-c3ccccc3)n2)cc1 | 17 mm | 13 mm | inhibition zone (IZ) (Escherichia coli): inactive; inhibition zone (IZ) (Acinetobacter baumannii [3]): 34 mm |
| NC(=S)N/N=C/c1cn(-c2ccc(C(=O)O)cc2)nc1-c1ccccc1 | inactive | inactive | – |
| O=C(O)c1ccc(-n2cc(/C=N/Nc3ccc(Cl)cc3Cl)c(-c3ccccc3)n2)cc1 | 11 mm | 10 mm | inhibition zone (IZ) (Escherichia coli): inactive; inhibition zone (IZ) (Acinetobacter baumannii [3]; [9]): inactive |
| Cc1ccc(S(=O)(=O)N/N=C/c2cn(-c3ccc(C(=O)O)cc3)nc2-c2ccccc2)cc1 | 11 mm | 12 mm | – |
| CN1CCN(/N=C/c2cn(-c3ccc(C(=O)O)cc3)nc2-c2ccccc2)CC1 | inactive | inactive | inhibition zone (IZ) (Escherichia coli): inactive; inhibition zone (IZ) (Acinetobacter baumannii [3]; [9]): inactive |
| O=C(O)c1ccc(-n2cc(/C=N/Nc3ccccc3)c(-c3ccccc3)n2)cc1 | 11 mm | 10 mm | inhibition zone (IZ) (Escherichia coli): inactive; inhibition zone (IZ) (Acinetobacter baumannii [3]): 28 mm |
| O=C(O)c1ccc(-n2cc(CNc3ccc(F)c(C(F)(F)F)c3)c(-c3ccccc3)n2)cc1 | 22 mm | 21 mm | MIC (Staphylococcus aureus [4]): 32 µg/mL (≈ 70.3 µM); CC50 [5]: > 32 µg/mL |
| NC(=O)N/N=C/c1cn(-c2ccc(C(=O)O)cc2)nc1-c1ccccc1 | inactive | inactive | – |
| O=C(O)c1ccc(-n2cc(CNc3ccc(CCO)cc3)c(-c3ccccc3)n2)cc1 | 10 mm | 9 mm | – |
| O=C(O)c1ccc(-n2cc(/C=N/Nc3ccc(F)cc3)c(-c3ccccc3)n2)cc1 | 18 mm | 16 mm | inhibition zone (IZ) (Acinetobacter baumannii [6]): >85 mm; inhibition zone (IZ) (Acinetobacter baumannii [7]): 32 mm; MIC (Acinetobacter baumannii [2]): 8 µg/mL (≈ 20 µM); CC50 [5]: > 32 µg/mL; inhibition zone (IZ) (Escherichia coli): 8 mm |
| O=C(O)c1ccc(N/N=C/c2cn(-c3ccc(C(=O)O)cc3)nc2-c2ccccc2)cc1 | inactive | inactive | inhibition zone (IZ) (Escherichia coli): inactive; inhibition zone (IZ) (Acinetobacter baumannii [3]; [9]): inactive |
| O=C(O)c1ccc(-n2cc(CNc3ccc(Cl)c(C(F)(F)F)c3)c(-c3ccccc3)n2)cc1 | 17 mm | 17 mm | MIC (Staphylococcus aureus [4]): 32 µg/mL (≈ 67.8 µM); CC50 [5]: > 32 µg/mL |
| O=C(O)c1cn(C2CC2)c2cc(N3CCNCC3)c(F)cc2c1=O [CIPROFLOXACIN] | 44 mm | 36 mm | MIC (Acinetobacter baumannii [2]): 1.56 µg/mL (≈ 4.71 µM); inhibition zone (IZ) (Escherichia coli): 39 mm; inhibition zone (IZ) (Acinetobacter baumannii [3]): 32 - 37 mm |

| SMILES | inhibition zone (IZ) (Bacillus subtilis) | inhibition zone (IZ) (Staphylococcus aureus [1]) | other results |
| --- | --- | --- | --- |
| Cc1ccc(NCc2cn(-c3ccc(C(=O)O)cc3)nc2-c2ccccc2)cc1Cl | 16 mm | 13 mm | MIC (Staphylococcus aureus [4]): 16 µg/mL (≈ 38.3 µM); CC50 [5]: 20 µg/mL (≈ 47.9 µM) |
| O=C(O)c1ccc(-n2cc(/C=N/Nc3ccc(Br)cc3)c(-c3ccccc3)n2)cc1 | 10 mm | 10 mm | MIC (Acinetobacter baumannii [2]): 8 µg/mL (≈ 17.3 µM); CC50 [5]: > 32 µg/mL; inhibition zone (IZ) (Escherichia coli): inactive; inhibition zone (IZ) (Acinetobacter baumannii [3]): 42 mm |
| O=C(O)c1ccc(-n2cc(/C=N/NS(=O)(=O)c3ccccc3)c(-c3ccccc3)n2)cc1 | 10 mm | 9 mm | – |
| Cc1cc(NCc2cn(-c3ccc(C(=O)O)cc3)nc2-c2ccccc2)ccc1Br | 17 mm | 15 mm | MIC (Staphylococcus aureus [4]): 16 µg/mL (≈ 34.6 µM); CC50 [5]: 17.9 µg/mL (≈ 38.7 µM) |
| COC(=O)N/N=C/c1cn(-c2ccc(C(=O)O)cc2)nc1-c1ccccc1 | inactive | inactive | – |
| O=C(O)c1ccc(-n2cc(/C=N/NC(=O)c3ccccc3O)c(-c3ccccc3)n2)cc1 | inactive | inactive | – |
| O=C(O)c1ccc(-n2cc(/C=N/NC(=O)c3cccnc3)c(-c3ccccc3)n2)cc1 | inactive | inactive | – |
| O=C(O)c1ccc(-n2cc(/C=N/NC(=O)c3ccc(F)cc3)c(-c3ccccc3)n2)cc1 | inactive | inactive | – |
| O=C(O)c1ccc(-n2cc(/C=N/NC(=O)c3ccccc3F)c(-c3ccccc3)n2)cc1 | 11 mm | 10 mm | – |
| O=C(O)c1ccc(-n2cc(CNc3cc(C(=O)O)cc(C(=O)O)c3)c(-c3ccccc3)n2)cc1 | 9 mm | 10 mm | – |
| CC(=O)N/N=C/c1cn(-c2ccc(C(=O)O)cc2)nc1-c1ccccc1 | inactive | inactive | – |
| O=C(O)c1ccc(-n2cc(CNc3ccc(Br)c(C(F)(F)F)c3)c(-c3ccccc3)n2)cc1 | 12 mm | 15 mm | MIC (Staphylococcus aureus [4]): 32 µg/mL (≈ 62 µM); CC50 [5]: > 32 µg/mL |
| O=C(O)c1ccc(-n2cc(/C=N/NC(=O)c3ccccc3)c(-c3ccccc3)n2)cc1 | 8 mm | 8 mm | – |
| O=C(O)c1ccc(-n2cc(CNc3cccc(C(=O)O)c3)c(-c3ccccc3)n2)cc1 | inactive | inactive | – |
| O=C(O)c1ccc(-n2cc(/C=N/NC(=O)c3ccncc3)c(-c3ccccc3)n2)cc1 | inactive | inactive | – |
| Cc1ccccc1NCc1cn(-c2ccc(C(=O)O)cc2)nc1-c1ccccc1 | 16 mm | 14 mm | – |
| O=C(O)c1ccc(-n2cc(/C=N/Nc3ccc(Cl)cc3)c(-c3ccccc3)n2)cc1 | 13 mm | 16 mm | Ratio (Acinetobacter baumannii [8]): 4; MIC (Acinetobacter baumannii [2]): 4 µg/mL (≈ 9.6 µM); CC50 [5]: > 32 µg/mL; inhibition zone (IZ) (Escherichia coli): 8 mm; inhibition zone (IZ) (Acinetobacter baumannii [3]): 54 mm |
| COc1ccc(C(=O)N/N=C/c2cn(-c3ccc(C(=O)O)cc3)nc2-c2ccccc2)cc1 | 11 mm | 8 mm | – |
| O=C(O)c1ccc(-n2cc(/C=N/NC(=O)c3ccc4ccccc4c3O)c(-c3ccccc3)n2)cc1 | inactive | inactive | – |
| Cc1cc(NCc2cn(-c3ccc(C(=O)O)cc3)nc2-c2ccccc2)ccc1F | 16 mm | 15 mm | – |
